By IC50 is commonly meant the point on the concentration scale where inhibition reaches its midpoint. Lower therefore signals greater potency in that assay.

One data set concerns ALK wt-TEL Ba/F3 cells. Put plainly: Anti-proliferation assay (CTG), ALK wt-TEL Ba/F3. Format: cell-based. To be noted: Mus musculus, BaF3. How it is done:
(§1) ALK wt-TEL, ALK L1196M-TEL transformed Ba/F3 and H2228 cell lines were cultured in RPMI1640 (Welgene, # LM011-01). […] Parental Ba/F3 cells were cultured in RPMI1640 media supplemented with 10% foetal bovine serum and 1% penicillin/streptomycin solution in the presence of IL-3. The cells were maintained in a humidified atmosphere containing 5% CO2 at 37 °C.
(§2) Cells (ALK wt-TEL, ALK L1196M-TEL and Parental Ba/F3: 1 × 10^4, H2228: 5 × 10^3) were plated in 96 well tissue culture plates. Each compound was added to each well at 10 dose points of three-fold serial dilution in DMSO. After treatment with each compound for 72 h, CTG assay solution (Promega, # G7572) was added to each well.

For another data set, the system named is H2228 (EML4-ALK) cells. Put plainly: Anti-proliferation assay (CTG), H2228. The format is cell-based. To be noted: Homo sapiens, NCI-H2228, 72 h, mean ± SD of three independent experiments. How it is done: as §1, §2
The target of a further data set is Lyn (Homo sapiens, UniProt P07948). In words: Biochemical kinase assay, Lyn. How it is done: (§3) Biochemical kinase assay was performed by methods previously reported. Kinase reactions of all test compounds except 10g were carried out at 10 µM ATP. Kinase reaction of 10g was performed at three different concentrations of ATP (10/50/100 µM).
For another data set, the target named is ALK-F1174L (Homo sapiens, UniProt Q9UM73, F1174L). Put plainly: Radiometric biochemical kinase assay, ALK-F1174L. As for the experimental part: as §3
For data set [1], the system named is ALK L1196M-TEL Ba/F3 cells. Put plainly: Anti-proliferation assay (CTG), ALK L1196M-TEL Ba/F3. The format is cell-based. As for the experimental part: as §1, §2
In another data set the test system is Parental Ba/F3 cells. In words: Anti-proliferation assay (CTG), parental Ba/F3. The format is cell-based. To be noted: Mus musculus, BaF3, 72 h, with IL-3, mean ± SD of three independent experiments, read-out: GI50 Ba/F3 cell lines Parental. How it is done: as §1, §2

Like-named read-outs stand apart in the source and are kept apart here.

Chain of Lyn (P07948 whole entry): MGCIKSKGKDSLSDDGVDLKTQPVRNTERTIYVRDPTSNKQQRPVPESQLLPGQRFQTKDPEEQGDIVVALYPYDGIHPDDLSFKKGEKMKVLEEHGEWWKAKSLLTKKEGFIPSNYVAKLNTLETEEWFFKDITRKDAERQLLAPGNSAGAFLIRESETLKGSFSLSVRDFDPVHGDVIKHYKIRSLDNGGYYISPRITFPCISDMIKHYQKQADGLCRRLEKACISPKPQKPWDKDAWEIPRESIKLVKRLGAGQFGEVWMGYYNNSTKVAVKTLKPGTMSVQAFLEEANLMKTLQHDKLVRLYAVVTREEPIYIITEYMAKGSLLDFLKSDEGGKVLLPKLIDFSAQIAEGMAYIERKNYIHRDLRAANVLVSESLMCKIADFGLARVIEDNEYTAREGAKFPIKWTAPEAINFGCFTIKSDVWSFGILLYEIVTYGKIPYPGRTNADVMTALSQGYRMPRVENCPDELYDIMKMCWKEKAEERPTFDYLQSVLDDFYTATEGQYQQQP
Chain of ALK-F1174L (Q9UM73 19-1620 F1174L): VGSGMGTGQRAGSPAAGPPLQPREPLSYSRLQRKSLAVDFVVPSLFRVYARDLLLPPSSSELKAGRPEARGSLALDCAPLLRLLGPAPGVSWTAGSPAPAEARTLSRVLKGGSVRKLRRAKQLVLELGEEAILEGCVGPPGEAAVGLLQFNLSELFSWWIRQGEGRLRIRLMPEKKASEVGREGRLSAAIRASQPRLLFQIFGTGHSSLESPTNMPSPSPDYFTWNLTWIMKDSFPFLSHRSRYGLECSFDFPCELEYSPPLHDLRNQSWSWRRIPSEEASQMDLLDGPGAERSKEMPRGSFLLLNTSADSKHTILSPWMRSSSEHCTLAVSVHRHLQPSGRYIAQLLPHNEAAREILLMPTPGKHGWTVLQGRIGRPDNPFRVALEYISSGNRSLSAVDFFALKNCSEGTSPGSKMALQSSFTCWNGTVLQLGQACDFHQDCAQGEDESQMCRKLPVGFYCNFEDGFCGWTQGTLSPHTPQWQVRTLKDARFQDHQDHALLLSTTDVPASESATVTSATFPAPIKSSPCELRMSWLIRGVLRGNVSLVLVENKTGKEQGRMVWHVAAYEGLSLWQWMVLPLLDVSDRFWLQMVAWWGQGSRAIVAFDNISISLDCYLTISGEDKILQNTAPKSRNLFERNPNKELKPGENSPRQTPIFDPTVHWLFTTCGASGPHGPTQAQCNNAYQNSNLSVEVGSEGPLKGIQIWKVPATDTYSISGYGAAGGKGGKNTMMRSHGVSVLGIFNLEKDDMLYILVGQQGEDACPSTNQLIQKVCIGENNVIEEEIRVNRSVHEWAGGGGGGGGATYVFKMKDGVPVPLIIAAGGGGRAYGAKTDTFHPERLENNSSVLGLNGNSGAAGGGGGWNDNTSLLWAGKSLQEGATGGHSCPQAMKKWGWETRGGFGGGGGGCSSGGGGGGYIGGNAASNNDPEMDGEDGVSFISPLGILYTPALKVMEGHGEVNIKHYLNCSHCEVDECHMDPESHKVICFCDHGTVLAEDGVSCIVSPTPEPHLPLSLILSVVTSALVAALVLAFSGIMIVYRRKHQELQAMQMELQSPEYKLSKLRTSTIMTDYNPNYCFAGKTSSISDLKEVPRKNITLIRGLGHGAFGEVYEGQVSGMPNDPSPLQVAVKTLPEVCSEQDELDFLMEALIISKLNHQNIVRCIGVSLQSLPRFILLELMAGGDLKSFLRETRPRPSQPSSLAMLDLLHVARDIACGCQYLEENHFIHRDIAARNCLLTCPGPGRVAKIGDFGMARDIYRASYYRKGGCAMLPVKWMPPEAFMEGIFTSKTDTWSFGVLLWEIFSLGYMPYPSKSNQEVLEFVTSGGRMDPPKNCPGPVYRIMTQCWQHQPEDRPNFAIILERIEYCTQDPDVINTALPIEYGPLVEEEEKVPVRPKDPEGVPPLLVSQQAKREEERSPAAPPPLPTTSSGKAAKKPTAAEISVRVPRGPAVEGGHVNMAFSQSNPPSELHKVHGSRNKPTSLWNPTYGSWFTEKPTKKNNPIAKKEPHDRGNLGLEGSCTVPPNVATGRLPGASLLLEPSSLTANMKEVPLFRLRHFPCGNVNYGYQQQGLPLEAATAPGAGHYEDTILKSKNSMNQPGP

With `CN1CCN(c2ccc(C(=O)Nc3n[nH]c4ncc(S(=O)(=O)c5cccc(F)c5)cc34)cc2)CC1` [10g, N-(5-((3-Fluorophenyl)sulfonyl)-1H-pyrazolo[3,4-b]pyridin-3-yl)-4–(4-methylpiperazin-1-yl)benzamide], the GI50 is 205 ± 60 nM in the data set with ALK wt-TEL Ba/F3 cells (72 h, CTG, mean ± SD of three independent experiments, read-out: GI50 Ba/F3 cell lines ALK wt-TEL); below 205 nM with ALK wt-TEL Ba/F3 cells (stated in text for both ALK-driven Ba/F3 lines (ALK wt-TEL and ALK L1196M-TEL), read-out: GI50 ALK-driven Ba/F3 cells); 219 ± 50 nM in the data set on H2228 (EML4-ALK) cells; 129 ± 20 nM in data set [1] (Mus musculus, BaF3, 72 h, CTG, mean ± SD of three independent experiments, read-out: GI50 Ba/F3 cell lines ALKL1196M-TEL); 3.5 ± 1.13 µM in the data set on Parental Ba/F3 cells. For the same molecule, the IC50 at Lyn is 33 nM; against ALK-F1174L it was 8.17 nM. Further, the “differential cytotoxicity against ALK-L1196M Ba/F3 cells vs. parental Ba/F3 cells compared with crizotinib” value in data set [1] (in words) is “much more favourable differential cytotoxicity”.

Source of the values: publication PMC6713165, “Identification of 1H-pyrazolo[3,4-b]pyridine derivatives as potent ALK-L1196M inhibitors” (Journal of Enzyme Inhibition and Medicinal Chemistry, 2019).
